# Measurements as given in patent publication US8748411B2, “Antineoplastic compounds and pharmaceutical compositions thereof” (Centro de Ingenieria Genetica y Biotechnologia, priority 2005, dated 2014).
# Where two headings read alike, the source gives them in different places. Where a SMILES comes first, the peptide text is derived from it.
# What was measured:
# [1] = target: oncoprotein E7 from Human Papilloma Virus type 16 as GST fusion protein (E7-GST), phosphorylated by CK2 enzyme (Human papillomavirus type 16, UniProt P03129); format: biochemical; settings: read-out: Inhibitory concentration 50 (IC50)
# [2] = tested on: H-125 cells; assay: Cytotoxic effect on cultured human tumour cells (MTS, 72 h); format: cell-based; settings: read-out: Inhibitory concentration 50 (IC50)
# Method: H-125 cells from a human Non Small Cells Lung Carcinoma were soiled in 96 well plates (Costar) to a 2×10^4 cell/ml density in Dulbecco (DMEM) media (Gibco) and supplemented with Foetal Calf Serum (Gibco). 24 hours later the chemical compounds described herein were added to the cultured media in a range between 0.5 and 100 nM, incubating the mixture for 72 h at 37° C. in 5% CO2, at the end 20 μl of a 1.90 mg/ml MTS solution was added. […] The results are evaluated as growth percentage to controls without any compound, and the IC50 values were estimated using each dosage-effect curve.
# [3] = tested on: CK2 optimized consensus substrate sequence RRREEETEEE; assay: In vitro CK2 phosphorylation of the optimized consensus substrate peptide […], filter radioactivity; format: biochemical; settings: read-out: Inhibitory concentration 50 (IC50)
# Method: The assay consists in performing an in vitro phosphorylation reaction, using as the substrate the sequence […] (SEQ. ID NO. 1) widely accepted as an optimized consensus phosphorylation domain for the CK2 substrates.
# Before the enzymatic reaction the substrate peptide was preincubated one hour at 37° C., with different concentrations of the chemical compounds. The reaction is carried out in a mixture consisting of 50 μl Tris:HCL 25 mM pH 7.5 buffer, 1 μCi of ^32P-γATP, 100 μM ATP, 40 μl E7-GST containing resin, 0.2 M NaCl, 10 mM MgCl and 1 unit of the CK2 enzyme (Promega), allowing it to proceed for 10 minutes at 37° C. After the reaction 5 μl of the reaction mixture were applied to a Whatmann PE-81 paper filter and washed four times with 10 mM H3PO4, finally the paper associated radioactivity was measured and the cpm value for each sample was directly correlated with the CK2 enzymatic activity.
# The IC50 values were estimated using each dosage-effect curve.
# [4] = tested on: H-125 cells tumour implant; design: species or system BalbC nude mice; settings: mouse, in vivo
# [5] = tested on: Jurkat cells; settings: cited from earlier work
# [6] = NCI-H125, H-125 cells, 72 h, MTS, absorbance 492 nm
# [7] = substrate peptide preincubated 1 h at 37° C., reaction 10 minutes at 37° C., 100 μM ATP
# oncoprotein E7 from Human Papilloma Virus type 16 as GST fusion protein (E7-GST), phosphorylated by CK2 enzyme, sequence (P03129 whole entry, looked up, the tested form may be a part): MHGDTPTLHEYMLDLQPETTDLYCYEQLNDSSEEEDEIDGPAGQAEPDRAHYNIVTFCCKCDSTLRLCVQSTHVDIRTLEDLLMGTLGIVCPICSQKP
SMILES,IC50 [1] [nM],"IC50 ([2]; NCI-H125, 72 h) [nM]",IC50 [3] [nM],antitumoral response [4],"IC50 [2, 6] [nM]","IC50 [3, 7] [nM]",apoptosis and caspase dependent degradation induction [5]
CN(CC(=O)O)C(=O)CNC(=O)OCc1ccccc1 [C31417] (HELM PEPTIDE1{[O=C(OCc1ccccc1)[*:2]].G.[Sar]}$$$$V2.0),28 ± 11,118 ± 21,78 ± 11,,,,
CSc1nc(N)nc2c1ncn2C1CC(CO)C(O)C1O (stereo not drawn) [C34439],33 ± 5,123 ± 25,63 ± 12,,,,
O=S(=O)(O)Nc1cnc(O)nc1O [C34429],21 ± 12,131 ± 4,61 ± 4,,,,
NCCC(=O)NCc1ccccc1 [C34433],26 ± 10,116 ± 18,76 ± 8,,,,
N#CCNC(=O)NCCCl [C30405],27 ± 10,104 ± 12,57 ± 10,,,,
N=C(N)C(NC=O)C(=O)NCc1ccccc1 (stereo not drawn) [C30414],23 ± 9,118 ± 9,68 ± 9,,,,
O=C(O)CNC(=S)C(=S)NCC(=O)O [C32425],35 ± 3,115 ± 12,65 ± 13,significant antitumoral response,,,
NNC(=O)CC(O)C(=O)NN (stereo not drawn) [C34434],28 ± 5,108 ± 21,78 ± 1,,,,
C/C(Cc1c[nH]c2ccccc12)=N\NC(N)=S [C30406],32 ± 7,97 ± 17,60 ± 7,,,,
NC(=S)NN=CCn1ccc(=O)n(CC=NNC(N)=S)c1=O [C31419],30 ± 4,132 ± 18,60 ± 8,,,,
CC(C(=O)NCC(O)CO)n1ccnc1[N+](=O)[O-] (stereo not drawn) [C31423],26 ± 8,106 ± 9,76 ± 4,,,,
C/C(COc1ccccc1)=N/NC(N)=S [C30415],33 ± 8,112 ± 10,72 ± 10,,,,
O=C(NNCCO)c1ccncc1 [C34431],32 ± 6,155 ± 23,55 ± 3,,,,
CC(C)NC(=S)Nc1c(N)nc(O)nc1O [C30402],30 ± 5,,,,98 ± 7,74 ± 7,
Clc1cc(Cl)cc(Nc2nc(C(Cl)(Cl)Cl)nc(C(Cl)(Cl)Cl)n2)c1 [C30410],40 ± 9,114 ± 7,54 ± 7,,,,
CC(Br)C(=O)NCC(=O)NCC(=O)O (stereo not drawn) [C31418],32 ± 5,123 ± 15,72 ± 5,,,,
CCOC(=O)c1cc[nH]c1CC(=O)NN [C34440],26 ± 4,136 ± 32,56 ± 4,,,,
NC(CC(=O)NC(=O)OCc1ccccc1)C(=O)O (stereo not drawn) [C34435],34 ± 3,124 ± 16,64 ± 6,,,,
NCC(=O)NCC(=O)NCC(=O)NCC(=O)O [C31416] (H-GGGG-OH),39 ± 6,,,,109 ± 6,69 ± 6,
OCCNCCCNc1ccnc2cc(Cl)ccc12 [C34428],25 ± 7,165 ± 12,65 ± 10,,,,

SMILES,IC50 [1] [nM],"IC50 ([2]; NCI-H125, 72 h) [nM]",IC50 [3] [nM],antitumoral response [4],"IC50 [2, 6] [nM]","IC50 [3, 7] [nM]",apoptosis and caspase dependent degradation induction [5]
CCCC(NC(=O)CNC(=O)CN)C(=O)O (stereo not drawn) [C31424] (HELM PEPTIDE1{G.G.[CCCC(N[*:1])C(=O)O]}$$$$V2.0),32 ± 13,162 ± 11,62 ± 1,,,,
NCCC(=O)NCC(=O)NCC(=O)O [C31420] (HELM PEPTIDE1{[bAla].G.G}$$$$V2.0),25 ± 7,125 ± 10,55 ± 11,,,,
O=C(O)c1cc(O)nc(SCc2ccc(Cl)cc2Cl)n1 [C34432],29 ± 7,127 ± 7,67 ± 7,,,,
C/C=C/CC/C(=N\NC(N)=O)c1ccccc1 [C30408],29 ± 2,119 ± 8,79 ± 5,,,,
O=C1NC(=O)C(CS(=O)(=O)Nc2cccc(C(F)(F)F)c2)N1 (stereo not drawn) [C34430],30 ± 4,140 ± 14,70 ± 4,,,,
O=C(O)CCNC(=O)NCCC(=O)O [C30404],20 ± 8,115 ± 18,61 ± 8,,,,
NCCNCCNCCNCCN [C33426],29 ± 8,109 ± 19,79 ± 9,significant antitumoral response,,,
"Brc1c(Br)c(Br)c2[nH]nnc2c1Br [TBB, 4,5,6,7-tetrabromotriazole]",,,,,,,potent apoptosis and caspase dependent degradation inducer
CC(O)CNc1nc(N)nc(O)c1[N+](=O)[O-] (stereo not drawn) [C34438],31 ± 1,111 ± 17,81 ± 7,,,,
CC(C)(CS(C)(=O)=O)NC(=O)NCCCl [C30413],24 ± 9,130 ± 11,64 ± 11,,,,
NNC(=O)CNc1cccc(I)c1 [C31422],24 ± 5,114 ± 5,74 ± 5,,,,
O=C(NCO)NC1NC(=O)NC1=O (stereo not drawn) [C30409],31 ± 6,104 ± 6,55 ± 6,,,,
CC(C)(C)NC(=O)NCCCl [C30411],27 ± 10,126 ± 15,66 ± 12,,,,
Cn1c(CCNC(=N)CSS(=O)(=O)O)nc2ccccc21 [C34437],27 ± 4,131 ± 9,71 ± 9,,,,
CCCCNC(=O)NCc1ccco1 [C30403],34 ± 9,128 ± 9,58 ± 9,,,,
CC1=C/C(=N\NC(N)=O)CC(C)(C)C1 [C30401],26 ± 11,103 ± 21,62 ± 11,,,,
NNC(=O)CNc1ccc(F)c(C(F)(F)F)c1 [C31421],30 ± 8,120 ± 18,50 ± 8,,,,
CC(C)(NC(=O)NCCCl)c1ccccc1 [C30412],30 ± 3,91 ± 15,71 ± 5,,,,
N#CC(Nc1ccccc1C(N)=O)c1ccccc1 (stereo not drawn) [C34436],30 ± 2,116 ± 22,66 ± 2,,,,
